Results: patent publication US20190374533A1, “COMPOUNDS AND METHODS FOR INHIBITING NHE-MEDIATED ANTIPORT IN THE TREATMENT OF DISORDERS ASSOCIATED WITH FLUID RETENTION OR SALT OVERLOAD AND GASTROINTESTINAL TRACT DISORDERS” (Ardelyx, Inc., priority 2008, published 2019)

system: not listed separately; assay: Determination of compound Cmax and AUC; type: in vivo; details: rat; Sprague-Dawley rats, oral gavage, serum 0.5-4 h; actual oral dose (mg/kg) given
Experimental: Sprague-Dawley rats were orally gavaged with test article (2.5 mg/kg) and serum was collected at 0.5, 1, 2 and 4 h. Serum samples were treated with acetonitrile, precipitated proteins removed by centrifugation and supernatants analyzed by LC/MS/MS and compared against a standard curve to determine compound concentration. All compounds were orally dosed at the dosage shown, and pharmacokinetic parameters determined as described in the text.

AUC [ng·h/mL]	Cmax [ng/mL]	Structure (SMILES)
< 8.3	< 4	CN1Cc2c(Cl)cc(Cl)cc2C(c2cccc(S(=O)(=O)NCCOCCOCCOCCNC(=O)c3ccc(C(=O)NCCOCCOCCOCCNS(=O)(=O)c4cccc(C5CN(C)Cc6c(Cl)cc(Cl)cc65)c4)cc3)c2)C1 (stereo not drawn) [Example 216, N1,N4-bis(2-(2-(2-(2-(3-(6,8-dichloro-2-methyl-1,2,3,4-tetrahydroisoquinolin-4-yl)phenylsulfonamido)ethoxy)ethoxy)ethoxy)ethyl)terephthalamide]
< 5	< 5	CN1Cc2c(Cl)cc(Cl)cc2C(c2cccc(S(=O)(=O)NCCOCCOCCOCCNC(=O)CN(CC(=O)NCCOCCOCCOCCNS(=O)(=O)c3cccc(C4CN(C)Cc5c(Cl)cc(Cl)cc54)c3)CC(=O)NCCOCCOCCOCCNS(=O)(=O)c3cccc(C4CN(C)Cc5c(Cl)cc(Cl)cc54)c3)c2)C1 (stereo not drawn) [Example 213, 2,2′,2″-nitrilotris(N-(2-(2-(2-(2-(3-(6,8-dichloro-2-methyl-1,2,3,4-tetrahydroisoquinolin-4-yl)phenylsulfonamido)ethoxy)ethoxy)ethoxy)ethyl)acetamide)]

system: not listed separately; assay: Parallel artificial membrane permeability assay (PAMPA); details: pH 7.4

Structure (SMILES)	Papp A→B at 3 h, 20 uM [×10⁻⁶ cm/s]
CN1Cc2c(Cl)cc(Cl)cc2C(c2ccc(S(=O)(=O)Nc3ccc(P(=O)(O)O)cc3)cc2)C1 (stereo not drawn) [Example 76, 4-(4-(6,8-dichloro-2-methyl-1,2,3,4-tetrahydroisoquinolin-4-yl)phenylsulfonamido)phenylphosphonic acid]	0.2
CCNC(=O)NS(=O)(=O)c1ccc(Oc2c(F)cc(/C=C(\C)C(=O)N=C(N)N)cc2F)cc1 [Example 74]	0.45
CN1Cc2c(Cl)cc(Cl)cc2C(c2ccc(S(=O)(=O)NCCN(CCNS(=O)(=O)c3ccc(C4CN(C)Cc5c(Cl)cc(Cl)cc54)cc3)CCNS(=O)(=O)c3ccc(C4CN(C)Cc5c(Cl)cc(Cl)cc54)cc3)cc2)C1 (stereo not drawn) [Example 24, N,N′,N″-(2,2′,2″-nitrilotris(ethane-2,1-diyl))tris(4-(6,8-dichloro-2-methyl-1,2,3,4-tetrahydroisoquinolin-4-yl)benzenesulfonamide)]	0.03
C/C(=C\c1cc(F)c(Oc2ccc(S(=O)(=O)N(CC(=O)O)CP(=O)(O)O)cc2)c(F)c1)C(=O)N=C(N)N [Example 57, (E)-2-(4-(4-(3-(diaminomethyleneamino)-2-methyl-3-oxoprop-1-enyl)-2,6-difluorophenoxy)-N-(phosphonomethyl)phenylsulfonamido)acetic acid]	1.65
CN1Cc2c(Cl)cc(Cl)cc2C(c2ccc(S(=O)(=O)NCc3ccc(CNS(=O)(=O)c4ccc(C5CN(C)Cc6c(Cl)cc(Cl)cc65)cc4)cc3)cc2)C1 (stereo not drawn) [Example 26, N,N′-(1,4-phenylenebis(methylene))bis(4-(6,8-dichloro-2-methyl-1,2,3,4-tetrahydroisoquinolin-4-yl)benzenesulfonamide)]	< 0.02
CN1Cc2c(Cl)cc(Cl)cc2C(c2ccc(NC(=O)N[C@@H](CC(=O)O)C(=O)O)cc2)C1 (stereo partly drawn) [Example 34, (2S)-2-(3-(4-(6,8-dichloro-2-methyl-1,2,3,4-tetrahydroisoquinolin-4-yl)phenyl)ureido)succinic acid]	0.2
NC(N)=Nc1nc(-c2ccc(N3CCN(CCCC(=O)O)CC3)cc2)c2cc(Cl)ccc2n1 [Example 73, 4-(4-(4-(6-chloro-2-(diaminomethyleneamino)quinazolin-4-yl)phenyl)piperazin-1-yl)butanoic acid]	0.27
C/C(=C\c1cc(F)c(Oc2ccc(S(=O)(=O)Nc3ccc(P(=O)(O)O)cc3)cc2)c(F)c1)C(=O)N=C(N)N [Example 51, (E)-4-(4-(4-(3-(diaminomethyleneamino)-2-methyl-3-oxoprop-1-enyl)-2,6-difluorophenoxy)phenylsulfonamido)phenylphosphonic acid]	0.2
C/C(=C\c1cc(F)c(Oc2ccc(S(=O)(=O)NCCOCCOCCOCCn3cc(CO)nn3)cc2)c(F)c1)C(=O)N=C(N)N [Example 48, (E)-N-(diaminomethylene)-3-(3,5-difluoro-4-(4-(N-(2-(2-(2-(2-(4-(hydroxymethyl)-1H-1,2,3-triazol-1-yl)ethoxy)ethoxy)ethoxy)ethyl)sulfamoyl)phenoxy)phenyl)-2-methylacrylamide]	0.9
C/C(=C\c1cc(F)c(Oc2ccc(S(=O)(=O)NCCOCCOCCOCCNS(=O)(=O)c3ccc(Oc4c(F)cc(/C=C(\C)C(=O)N=C(N)N)cc4F)cc3)cc2)c(F)c1)C(=O)N=C(N)N [Example 44, N,N′-(2,2′-(2,2′-oxybis(ethane-2,1-diyl)bis(oxy))bis(ethane-2,1-diyl))bis[(E)-N-(diaminomethylene)-3-(3,5-difluoro-4-(4-sulfamoylphenoxy)phenyl)-2-methylacrylamide]]	0.1
CN1Cc2c(Cl)cc(Cl)cc2C(c2cccc(S(=O)(=O)NCCN(CCNS(=O)(=O)c3cccc(C4CN(C)Cc5c(Cl)cc(Cl)cc54)c3)CCNS(=O)(=O)c3cccc(C4CN(C)Cc5c(Cl)cc(Cl)cc54)c3)c2)C1 (stereo not drawn) [Example 16, N,N′,N″-(2,2′,2″-nitrilotris(ethane-2,1-diyl))tris(3-(6,8-dichloro-2-methyl-1,2,3,4-tetrahydroisoquinolin-4-yl)benzenesulfonamide)]	< 0.02

Second part, the molecule after the results:

Papp A→B at 3 h, 20 uM [×10⁻⁶ cm/s]	Structure (SMILES)
0.2	CN1Cc2c(Cl)cc(Cl)cc2C(c2ccc(NC(=O)N[C@@H](CCC(=O)O)C(=O)O)cc2)C1 (stereo partly drawn) [Example 36]
0.05	CN1Cc2c(Cl)cc(Cl)cc2C(c2ccc(S(=O)(=O)N(CCC(=O)O)CCC(=O)O)cc2)C1 (stereo not drawn) [Example 15, 3,3′-(4-(6,8-dichloro-2-methyl-1,2,3,4-tetrahydroisoquinolin-4-yl)phenylsulfonylazanediyl)dipropanoic acid]
0.2	CN1Cc2c(Cl)cc(Cl)cc2C(c2ccc(S(=O)(=O)N(CC(=O)O)CP(=O)(O)O)cc2)C1 (stereo not drawn) [Example 72, 2-(4-(6,8-dichloro-2-methyl-1,2,3,4-tetrahydroisoquinolin-4-yl)-N-(phosphonomethyl)phenylsulfonamido)acetic acid]
0.1	CN1Cc2c(Cl)cc(Cl)cc2C(c2cccc(NC(=O)N[C@@H](CCC(=O)O)C(=O)O)c2)C1 (stereo partly drawn) [Example 37, (2S)-2-(3-(3-(6,8-dichloro-2-methyl-1,2,3,4-tetrahydroisoquinolin-4-yl)phenyl)ureido)pentanedioic acid]
0.3	CN1Cc2c(Cl)cc(Cl)cc2C(c2ccc(S(=O)(=O)Nc3ccc(CP(=O)(O)O)cc3)cc2)C1 (stereo not drawn) [Example 13, (4-(4-(6,8-dichloro-2-methyl-1,2,3,4-tetrahydroisoquinolin-4-yl)phenylsulfonamido)phenyl)methylphosphonic acid]
< 0.04	CN1Cc2c(Cl)cc(Cl)cc2C(c2ccc(S(=O)(=O)NCCCCCCCCCCCCNS(=O)(=O)c3ccc(C4CN(C)Cc5c(Cl)cc(Cl)cc54)cc3)cc2)C1 (stereo not drawn) [Example 23, N,N′-(dodecane-1,12-diyl)bis(4-(6,8-dichloro-2-methyl-1,2,3,4-tetrahydroisoquinolin-4-yl)benzenesulfonamide)]
0.45	C/C(=C\c1cc(F)c(Oc2ccc(S(=O)(=O)NCCCS(=O)(=O)O)cc2)c(F)c1)C(=O)N=C(N)N [Example 71, (E)-3-(4-(4-(3-(diaminomethyleneamino)-2-methyl-3-oxoprop-1-enyl)-2,6-difluorophenoxy)phenylsulfonamido)propane-1-sulfonic acid]

molecular target: T1, rat NHE-3 (Rattus norvegicus, UniProt P26433); assay: Cell-based assay of NHE-3 activity (Pharmacological Test Example 1); details: OK cells expressing rat NHE-3; 0-30 uM test compound, 5 uM EIPA
T1 construct: expressed in transfected cells; host or cells: Opossum kidney (OK) cells (ATCC), electroporated
How it was run: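 Na+-dependent H+ exchange tracked with the pH-sensitive dye BCECF in opossum kidney cells transiently expressing rat NHE-3. Intracellular acidification by NH4Cl prepulse, then 10 min in ammonium- and Na+-free HEPES, pH 7.4, room temperature. Initial rates averaged over 3-6 replicates give pIC50.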

T1 sequence (P26433 29-831): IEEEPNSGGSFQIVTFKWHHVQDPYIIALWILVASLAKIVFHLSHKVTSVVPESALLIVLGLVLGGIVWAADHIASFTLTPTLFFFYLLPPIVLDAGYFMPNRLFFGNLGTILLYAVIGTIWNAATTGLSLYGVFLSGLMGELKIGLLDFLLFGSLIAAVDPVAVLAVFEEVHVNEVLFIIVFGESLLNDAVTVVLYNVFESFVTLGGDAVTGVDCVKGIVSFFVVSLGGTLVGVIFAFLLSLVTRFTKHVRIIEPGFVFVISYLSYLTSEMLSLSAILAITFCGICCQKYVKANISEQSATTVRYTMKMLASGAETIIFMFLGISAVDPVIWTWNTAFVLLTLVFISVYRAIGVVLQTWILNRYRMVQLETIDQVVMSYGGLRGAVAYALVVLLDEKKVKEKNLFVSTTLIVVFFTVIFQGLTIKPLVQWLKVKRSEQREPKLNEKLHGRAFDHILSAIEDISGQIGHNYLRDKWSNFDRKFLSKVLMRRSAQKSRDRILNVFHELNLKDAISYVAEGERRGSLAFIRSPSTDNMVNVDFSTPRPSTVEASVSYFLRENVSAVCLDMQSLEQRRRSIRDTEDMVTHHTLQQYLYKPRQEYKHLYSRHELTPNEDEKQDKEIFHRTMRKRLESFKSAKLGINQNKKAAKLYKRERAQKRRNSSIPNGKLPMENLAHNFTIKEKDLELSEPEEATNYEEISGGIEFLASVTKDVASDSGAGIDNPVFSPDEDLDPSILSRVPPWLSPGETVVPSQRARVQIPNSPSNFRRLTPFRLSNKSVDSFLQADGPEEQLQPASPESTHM

rat NHE-3 Average pIC50	Structure (SMILES)
6 to 7	CN1Cc2c(Cl)cc(Cl)cc2C(c2cccc(S(=O)(=O)NCCOCCOCCOCCNC(=O)CN(CC(=O)NCCOCCOCCOCCNS(=O)(=O)c3cccc(C4CN(C)Cc5c(Cl)cc(Cl)cc54)c3)CC(=O)NCCOCCOCCOCCNS(=O)(=O)c3cccc(C4CN(C)Cc5c(Cl)cc(Cl)cc54)c3)c2)C1 (stereo not drawn) [Example 213, 2,2′,2″-nitrilotris(N-(2-(2-(2-(2-(3-(6,8-dichloro-2-methyl-1,2,3,4-tetrahydroisoquinolin-4-yl)phenylsulfonamido)ethoxy)ethoxy)ethoxy)ethyl)acetamide)]

same assay, conditions: OK cells expressing rat NHE-3; 0-30 uM test compound, 5 uM EIPA; read-out: rat NHE-3 Average pIC50 (converted)

IC50 [nM]	Structure (SMILES)
< 100	CN1Cc2c(Cl)cc(Cl)cc2C(c2cccc(S(=O)(=O)NCCOCCOCCOCCNC(=O)c3ccc(C(=O)NCCOCCOCCOCCNS(=O)(=O)c4cccc(C5CN(C)Cc6c(Cl)cc(Cl)cc65)c4)cc3)c2)C1 (stereo not drawn) [Example 216, N1,N4-bis(2-(2-(2-(2-(3-(6,8-dichloro-2-methyl-1,2,3,4-tetrahydroisoquinolin-4-yl)phenylsulfonamido)ethoxy)ethoxy)ethoxy)ethyl)terephthalamide]
